The values below come from patent US20120214830A1, “BIOLOGICAL MARKERS PREDICTIVE OF ANTI-CANCER RESPONSE TO INSULIN-LIKE GROWTH FACTOR-1 RECEPTOR KINASE INHIBITORS IN HEPATOCELLULAR CARCINOMA” (OSI Pharmaceuticals, LLC, priority 2011, published 2012).

The test system of experiment [1] is HCC cell lines (HepG2, Hep3B, HUH-1, HUH-6, HUH-7, JHH-5, JHH-7). Put plainly: Cell-titer glo proliferation assay, summary for the seven sensitive HCC cell lines. The format is cell-based, human. The protocol: (§1) Cell lines: Twenty-one HCC cell lines were purchased from either ATCC (HepG2, Hep3B, PLC/PRF/5, SK-Hepl, SNU-182, SNU-387, SNU-398, SNU-423, SNU-449, SNU-475) or Health Science Research Resources Bank (Japan) (HUH-1, HUH-6, HUH-7, HLE, HLF, JHH-1, JHH-2, JHH-4, JHH-5, JHH-6, JHH-7). All the cell lines were maintained in media as described by the vendors. For growth inhibition assays, cells were plated and allowed to proliferate for 24 hours. After 24 hours, cells had reached approximately 15% confluency, at which time serial dilutions of OSI-906 were added and the cells grown for a further 72 hours. Cell viability was assayed using the Cell Titer-Glo reagent (Promega Corp., Madison, Wis.).
Proliferation Assay. Proliferation was assayed using Cell Titer Glo assays (Promega) and was determined 72 hours following dosing with OSI-906. The basis of the assay is a luminescent quantitation of ATP present in a cell culture plate well. […] The assay utilizes a substrate that binds ATP to produce a luminescent signal, which can be read on a luminometer. […] Results were calculated as a fraction of the DMSO controlled cells.
To test cell sensitivity of HCC cells to the IGF-1R kinase inhibitor OSI-906, twenty-one HCC cell lines were treated with different concentration of OSI-906, and cell proliferation was measured by cell-titer glo assays (FIG. 1). […]

Another experiment relates to HLF. The experiment in a line: Cell Titer-Glo proliferation assay, 72 h. The format is cell-based. The conditions noted are these: Homo sapiens, HLF cells. The protocol:
(§2) Two sensitive epithelial cell lines Hep3B (A), JHH-7 (B), one insensitive epithelial cell line JHH-1(C) or one insensitive mesenchymal-like cell line HLF (D) were treated serial dilution of OSI-906 in the presence of Erlotinib for 72 hours, and sensitivity to treatment was measured by proliferation assays.
as §1
(§3) Proliferation Assay. Proliferation was assayed using Cell Titer Glo assays (Promega) and was determined 72 hours following dosing with OSI-906. The basis of the assay is a luminescent quantitation of ATP present in a cell culture plate well. In essence, the greater the number of viable cells in the well, the greater the level of ATP present. The assay utilizes a substrate that binds ATP to produce a luminescent signal, which can be read on a luminometer. Unless otherwise noted, the manufacturer's instructions were followed exactly. Briefly, on Day 1, cells were plated in 120 μl of 10% serum-containing growth media at a density of 4000 cells/well in a white polystyrene 96 well assay plate. On day 2, cells were treated with 15 μl of 10× concentration of the IGF-1R inhibitor (e.g. OSI-906) or DMSO alone for a final well volume of 150 μl. After 72 h incubation with the inhibitor, the cells were assayed. Results were calculated as a fraction of the DMSO controlled cells.
For orientation: Cellular ATP, detected with luciferase, serves as a proxy for viable cell number.

In the next experiment the test system is JHH-1. The experiment in a line: Cell Titer-Glo proliferation assay, 72 h. The format is cell-based. The conditions noted are these: Homo sapiens, JHH1, JHH-1 cells. The protocol:
as §2, §1, §3

Another experiment concerns JHH-7. Put plainly: Cell Titer-Glo proliferation assay, 72 h. Conditions: Homo sapiens, JHH7, JHH-7 cells. Format: cell-based. The protocol:
as §2, §1, §3

In a further experiment the test system is Hep 3B. The experiment in a line: Cell Titer-Glo proliferation assay, 72 h. The format is cell-based. The conditions noted are these: Homo sapiens, Hep3B, Hep 3B cells. The protocol: as §2, §1, §3
Another experiment concerns tumor xenograft. Conditions: cited from earlier work.

Where two headings read alike, the source gives them in different places.

Compound `C[C@]1(O)C[C@@H](c2nc(-c3ccc4ccc(-c5ccccc5)nc4c3)c3c(N)nccn32)C1` [OSI-906, cis-3-[8-amino-1-(2-phenyl-quinolin-7-yl)-imidazo[1,5-a]pyrazin-3-yl]-1-methyl-cyclobutanol] came in with a maximum inhibition in experiment [1] of more than 40%. Also, the EC50 (as a rule, the concentration that produces a half-maximal response) in experiment [1] (Homo sapiens) is less than 1000 nM; in the experiment on HLF (72 h OSI-906) it was more than 10000 nM; in the experiment on JHH-1 (72 h OSI-906), more than 10000 nM; with JHH-7 (72 h OSI-906) it was 940 nM; with Hep 3B (72 h OSI-906), 350 nM. Moreover, the inhibition – broadly, the share of the control response that was lost under treatment – at 5 µM in the experiment with HLF (5 μM OSI-906, 72 h) was less than 40%; in the experiment on JHH-1 (5 μM OSI-906, 72 h) it was less than 40%; with JHH-7 (5 μM OSI-906, 72 h), 70%; in the experiment on Hep 3B (5 μM OSI-906, 72 h) it was 67%. In addition, the “tumor growth inhibition (TGI)” value in the experiment with tumor xenograft (xenografts of tumor cells with high sensitivity to OSI-906 in culture in vitro) is on record as “high pencentage tumor growth inhibition”; in the experiment with tumor xenograft (xenografts of tumor cells with low sensitivity to OSI-906 in culture in vitro), “only a low pencentage tumor growth inhibition”.
